The record followed here is the supplement of paper PMC8967900.
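Note: ALL cell lines in 384-well plates, five doses spanning 10,000-fold, each plate scaled between vehicle and 100 µmol/L benzalkonium chloride controls, sDSS an adapted area-under-curve metric.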

The first experiment concerns NALM-16. The experiment can be described thus: selective drug sensitivity score (sDSS, relative to normal bone marrow) (sDSS (score)); higher = more potent and effective on the cell line relative to normal bone marrow cells. The settings on record: 72 h.
For `Cn1cncc1[C@@](N)(c1ccc(Cl)cc1)c1ccc2c(c1)c(-c1cccc(Cl)c1)cc(=O)n2C` [Tipifarnib] (top concentration 10000 nM), the “selective drug sensitivity score” value came to 9.9.

For `COc1ccccc1S(=O)(=O)Nc1ccc2c(c1)CN(C)C(=O)N2` [PFI-1] (top concentration 30000 nM), the “selective drug sensitivity score” value was -1.

Turning to `Cc1cn(-c2cc(NC(=O)c3ccc(C)c(Nc4nccc(-c5cnccn5)n4)c3)cc(C(F)(F)F)c2)cn1` [Radotinib] (top concentration 10000 nM), the “selective drug sensitivity score” value amounted to 0.

For `CC[C@H](Nc1ncnc2[nH]cnc12)c1nc2cccc(F)c2c(=O)n1-c1ccccc1` [Idelalisib] (top concentration 10000 nM), the “selective drug sensitivity score” value is -2.16.

As to `Cc1noc2c1-c1ccccc1C(c1ccc(Cl)cc1)=N[C@H]2CC(N)=O` [CPI-0610] (top concentration 10000 nM), the “selective drug sensitivity score” value is 1.4.

In the case of `C=C(c1ccc(C(=O)O)cc1)c1cc2c(cc1C)C(C)(C)CCC2(C)C` [Bexarotene] (top concentration 10000 nM), the “selective drug sensitivity score” value was -4.1.

Consider `CC1(COc2ccc3c(c2)ncn3-c2ccc3cccc(N4CCC(N)CC4)c3n2)COC1` [Crenolanib] (top concentration 10000 nM), for which the “selective drug sensitivity score” value is -7.62.

For `O=C(Nc1cc(Oc2cc(F)c(NC(=O)C3(C(=O)Nc4ccc(F)cc4)CC3)cc2F)ccn1)C1CC1` [Altiratinib] (top concentration 10000 nM), the “selective drug sensitivity score” value is -2.56.

Turning to `O=C(Nc1ccncc1)C(=O)c1cn(Cc2ccc(Cl)cc2)c2ccccc12` [Indibulin] (top concentration 10000 nM), the “selective drug sensitivity score” value stood at 9.34.

`Cc1ncc(-c2ccnc(Nc3ccc(S(C)(=O)=O)cc3)n2)n1C(C)C` [AZD-5438] (top concentration 10000 nM): the “selective drug sensitivity score” value was -6.16.

On to `NC[C@@](O)(c1ccc(Cl)cc1)c1ccc(-c2cn[nH]c2)cc1` (top concentration 10000 nM), for which the “selective drug sensitivity score” value was -1.22.

Take `Cn1c(Nc2ccc(C(F)(F)F)cc2)nc2cc(Oc3ccnc(-c4ncc(C(F)(F)F)[nH]4)c3)ccc21` [NVP-RAF265] (top concentration 1000 nM): the “selective drug sensitivity score” value amounted to 6.18.

As to `CNCc1ccc(-c2[nH]c3cc(F)cc4c3c2CCNC4=O)cc1` [Rucaparib] (top concentration 10000 nM), the “selective drug sensitivity score” value was -0.58.

Take `O=C(CCCCCCC(=O)Nc1ccc([C@H]2O[C@@H](CSc3nc(-c4ccccc4)c(-c4ccccc4)o3)C[C@@H](c3ccc(CO)cc3)O2)cc1)NO` [Tubacin] (top concentration 10000 nM): the “selective drug sensitivity score” value is 7.14.

As for `N#CCNC(=O)c1ccc(-c2ccnc(Nc3ccc(N4CCOCC4)cc3)n2)cc1` [Momelotinib] (top concentration 10000 nM), the “selective drug sensitivity score” value is -8.32.

For the molecule `Nc1cccc2c1CN(C1CCC(=O)NC1=O)C2=O` (stereo not given) [Lenalidomide] (top concentration 100000 nM), the “selective drug sensitivity score” value was -0.38.

As to `CCN1CCN(Cc2ccc(Nc3ncc(F)c(-c4cc(F)c5nc(C)n(C(C)C)c5c4)n3)nc2)CC1` [Abemaciclib] (top concentration 2500 nM), the “selective drug sensitivity score” value is -6.46.

On to `Cc1cc(Nc2ncc(Cl)c(Nc3ccccc3S(=O)(=O)C(C)C)n2)c(OC(C)C)cc1C1CCNCC1` [Ceritinib] (top concentration 2500 nM), for which the “selective drug sensitivity score” value is -3.44.

In the next experiment the test system is P12-ICHIKAWA
The experiment is described as above. The following applies: 72 h.
As to `Cn1cncc1[C@@](N)(c1ccc(Cl)cc1)c1ccc2c(c1)c(-c1cccc(Cl)c1)cc(=O)n2C` [Tipifarnib] (top concentration 10000 nM), the “selective drug sensitivity score” value came to 9.6.

For `COc1ccccc1S(=O)(=O)Nc1ccc2c(c1)CN(C)C(=O)N2` [PFI-1] (top concentration 30000 nM), the “selective drug sensitivity score” value is 0.8.

For `Cc1cn(-c2cc(NC(=O)c3ccc(C)c(Nc4nccc(-c5cnccn5)n4)c3)cc(C(F)(F)F)c2)cn1` [Radotinib] (top concentration 10000 nM), the “selective drug sensitivity score” value worked out at 0.7.

For `CC[C@H](Nc1ncnc2[nH]cnc12)c1nc2cccc(F)c2c(=O)n1-c1ccccc1` [Idelalisib] (top concentration 10000 nM), the “selective drug sensitivity score” value is -1.26.

For the molecule `Cc1noc2c1-c1ccccc1C(c1ccc(Cl)cc1)=N[C@H]2CC(N)=O` [CPI-0610] (top concentration 10000 nM), the “selective drug sensitivity score” value was determined as 4.4.

On to `C=C(c1ccc(C(=O)O)cc1)c1cc2c(cc1C)C(C)(C)CCC2(C)C` [Bexarotene] (top concentration 10000 nM), for which the “selective drug sensitivity score” value was -0.5.

With `CC1(COc2ccc3c(c2)ncn3-c2ccc3cccc(N4CCC(N)CC4)c3n2)COC1` [Crenolanib] (top concentration 10000 nM), the “selective drug sensitivity score” value is -2.62.

As for `O=C(Nc1cc(Oc2cc(F)c(NC(=O)C3(C(=O)Nc4ccc(F)cc4)CC3)cc2F)ccn1)C1CC1` [Altiratinib] (top concentration 10000 nM), the “selective drug sensitivity score” value amounted to 0.34.

In the case of `O=C(Nc1ccncc1)C(=O)c1cn(Cc2ccc(Cl)cc2)c2ccccc12` [Indibulin] (top concentration 10000 nM), the “selective drug sensitivity score” value was 6.54.

For the molecule `Cc1ncc(-c2ccnc(Nc3ccc(S(C)(=O)=O)cc3)n2)n1C(C)C` [AZD-5438] (top concentration 10000 nM), the “selective drug sensitivity score” value was -0.36.

Regarding `NC[C@@](O)(c1ccc(Cl)cc1)c1ccc(-c2cn[nH]c2)cc1` (top concentration 10000 nM), the “selective drug sensitivity score” value was found to be 3.58.

Turning to `Cn1c(Nc2ccc(C(F)(F)F)cc2)nc2cc(Oc3ccnc(-c4ncc(C(F)(F)F)[nH]4)c3)ccc21` [NVP-RAF265] (top concentration 1000 nM), the “selective drug sensitivity score” value was found to be 2.58.

Regarding `CNCc1ccc(-c2[nH]c3cc(F)cc4c3c2CCNC4=O)cc1` [Rucaparib] (top concentration 10000 nM), the “selective drug sensitivity score” value is -0.58.

For `O=C(CCCCCCC(=O)Nc1ccc([C@H]2O[C@@H](CSc3nc(-c4ccccc4)c(-c4ccccc4)o3)C[C@@H](c3ccc(CO)cc3)O2)cc1)NO` [Tubacin] (top concentration 10000 nM), the “selective drug sensitivity score” value is 14.9.

As to `N#CCNC(=O)c1ccc(-c2ccnc(Nc3ccc(N4CCOCC4)cc3)n2)cc1` [Momelotinib] (top concentration 10000 nM), the “selective drug sensitivity score” value is -0.12.

On to `Nc1cccc2c1CN(C1CCC(=O)NC1=O)C2=O` (stereo not given) [Lenalidomide] (top concentration 100000 nM), for which the “selective drug sensitivity score” value is -2.28.

Regarding `CCN1CCN(Cc2ccc(Nc3ncc(F)c(-c4cc(F)c5nc(C)n(C(C)C)c5c4)n3)nc2)CC1` [Abemaciclib] (top concentration 2500 nM), the “selective drug sensitivity score” value is -4.06.

As to `Cc1cc(Nc2ncc(Cl)c(Nc3ccccc3S(=O)(=O)C(C)C)n2)c(OC(C)C)cc1C1CCNCC1` [Ceritinib] (top concentration 2500 nM), the “selective drug sensitivity score” value was -3.44.

The next experiment deals with PF-382. The description is as above. The settings on record: 72 h.
On to `Cn1cncc1[C@@](N)(c1ccc(Cl)cc1)c1ccc2c(c1)c(-c1cccc(Cl)c1)cc(=O)n2C` [Tipifarnib] (top concentration 10000 nM), for which the “selective drug sensitivity score” value turned out to be 13.

As to `COc1ccccc1S(=O)(=O)Nc1ccc2c(c1)CN(C)C(=O)N2` [PFI-1] (top concentration 30000 nM), the “selective drug sensitivity score” value is 1.8.

Regarding `Cc1cn(-c2cc(NC(=O)c3ccc(C)c(Nc4nccc(-c5cnccn5)n4)c3)cc(C(F)(F)F)c2)cn1` [Radotinib] (top concentration 10000 nM), the “selective drug sensitivity score” value was 0.2.

Take `CC[C@H](Nc1ncnc2[nH]cnc12)c1nc2cccc(F)c2c(=O)n1-c1ccccc1` [Idelalisib] (top concentration 10000 nM): the “selective drug sensitivity score” value is -0.36.

For the molecule `Cc1noc2c1-c1ccccc1C(c1ccc(Cl)cc1)=N[C@H]2CC(N)=O` [CPI-0610] (top concentration 10000 nM), the “selective drug sensitivity score” value was 3.5.

Turning to `C=C(c1ccc(C(=O)O)cc1)c1cc2c(cc1C)C(C)(C)CCC2(C)C` [Bexarotene] (top concentration 10000 nM), the “selective drug sensitivity score” value is -4.6.

Regarding `CC1(COc2ccc3c(c2)ncn3-c2ccc3cccc(N4CCC(N)CC4)c3n2)COC1` [Crenolanib] (top concentration 10000 nM), the “selective drug sensitivity score” value worked out at 0.08.

On to `O=C(Nc1cc(Oc2cc(F)c(NC(=O)C3(C(=O)Nc4ccc(F)cc4)CC3)cc2F)ccn1)C1CC1` [Altiratinib] (top concentration 10000 nM), for which the “selective drug sensitivity score” value came to 0.64.

For `O=C(Nc1ccncc1)C(=O)c1cn(Cc2ccc(Cl)cc2)c2ccccc12` [Indibulin] (top concentration 10000 nM), the “selective drug sensitivity score” value came to 4.74.
